Source: ChEMBL document CHEMBL4819142, “Synthesis of propargylamine mycophenolate analogues and their selective cytotoxic activity towards neuroblastoma SH-SY5Y cell line” (Bioorg Med Chem Lett, 2021)

Experiments:
[1] = tested on: MDA-MB-231; assay: Cytotoxicity against human MDA-MB-231 cells assessed as growth inhibition measured by SRB assay; assay type: functional, cell-based
[2] = tested on: SH-SY5Y; assay: Cytotoxicity against human SH-SY5Y cells assessed as growth inhibition measured by SRB assay; assay type: functional, cell-based
[3] = Cytotoxicity against human […] cells assessed as growth inhibition measured by SRB assay; assay type: cell-based
[4] = tested on: A549; assay: Cytotoxicity against human A549 cells assessed as growth inhibition measured by SRB assay; assay type: functional, cell-based
[5] = tested on: FaDu; assay: Cytotoxicity against human FaDu cells assessed as growth inhibition measured by SRB assay; assay type: functional, cell-based
[6] = Cytotoxicity against human KKUM213 cells assessed as growth inhibition measured by SRB assay; assay type: functional, cell-based; details: KKU-M213
[7] = tested on: HT-29; assay: Cytotoxicity against human HT-29 cells assessed as growth inhibition measured by SRB assay; assay type: functional, cell-based

Structure (SMILES)	IC50 [1]	IC50 [2]	IC50 [3]	IC50 [4]	IC50 [5]	IC50 [6]	IC50 [7]
COC(=O)CC/C(C)=C/Cc1c(OC)c(C)c2c(c1OCC#CCN1CCCc3ccccc31)C(=O)OC2	> 50 µM	9.57 µM	> 50 µM	18 µM	> 50 µM	> 50 µM	> 50 µM
COC(=O)CC/C(C)=C/Cc1c(OC)c(C)c2c(c1OCC#CCN1CCN(C(=O)C3COc4ccccc4O3)CC1)C(=O)OC2 (stereo not given)	> 50 µM	> 50 µM	> 50 µM	> 50 µM	> 50 µM	> 50 µM	> 50 µM
COC(=O)CC/C(C)=C/Cc1c(OC)c(C)c2c(c1OCC#CCN1CCN(c3ccc(C#N)cc3)CC1)C(=O)OC2	> 50 µM	37.8 µM	> 50 µM	> 50 µM	> 50 µM	> 50 µM	> 50 µM
COC(=O)CC/C(C)=C/Cc1c(OC)c(C)c2c(c1OCC#CCN1CCN(c3ccc(O)cc3)CC1)C(=O)OC2	> 50 µM	46.1 µM	> 50 µM	> 50 µM	> 50 µM	> 50 µM	> 50 µM
COC(=O)CC/C(C)=C/Cc1c(OC)c(C)c2c(c1OCC#CCN1CCN(c3ccc(C)cc3)CC1)C(=O)OC2	> 50 µM	37.7 µM	> 50 µM	> 50 µM	> 50 µM	> 50 µM	> 50 µM
COc1c(C)c2c(c(O)c1C/C=C(\C)CCC(=O)O)C(=O)OC2 [MYCOPHENOLIC ACID]	7.83 µM	0.56 µM	7.19 µM	1.21 µM	6.72 µM	7.16 µM	6.48 µM
COC(=O)CC/C(C)=C/Cc1c(OC)c(C)c2c(c1OCC#CCN1CCN(C(c3ccccc3)c3ccccc3)CC1)C(=O)OC2	> 50 µM	23.7 µM	> 50 µM	32.7 µM	> 50 µM	> 50 µM	> 50 µM
COC(=O)CC/C(C)=C/Cc1c(OC)c(C)c2c(c1OCC#CCN(CC#CCOc1c(C/C=C(\C)CCC(=O)OC)c(OC)c(C)c3c1C(=O)OC3)CCC(C)C)C(=O)OC2	48.6 µM	20.6 µM	48.2 µM	27.5 µM	46.7 µM	48.3 µM	> 50 µM
COC(=O)CC/C(C)=C/Cc1c(OC)c(C)c2c(c1OCC#CCN1CCOCC1)C(=O)OC2	> 50 µM	> 50 µM	> 50 µM	> 50 µM	> 50 µM	> 50 µM	> 50 µM
COC(=O)CC/C(C)=C/Cc1c(OC)c(C)c2c(c1OCC#CCN1CCN(C(c3ccc(F)cc3)c3ccc(F)cc3)CC1)C(=O)OC2	> 50 µM	25.8 µM	> 50 µM	34.1 µM	> 50 µM	> 50 µM	> 50 µM
COC(=O)CC/C(C)=C/Cc1c(OC)c(C)c2c(c1OCC#CCN1CCN(Cc3ccc(Cl)cc3)CC1)C(=O)OC2	> 50 µM	31.2 µM	> 50 µM	> 50 µM	> 50 µM	> 50 µM	> 50 µM
COC(=O)CC/C(C)=C/Cc1c(OC)c(C)c2c(c1OCC#CCN1CCN(C(C)=O)CC1)C(=O)OC2	> 50 µM	> 50 µM	> 50 µM	> 50 µM	> 50 µM	> 50 µM	> 50 µM
COC(=O)CC/C(C)=C/Cc1c(OC)c(C)c2c(c1OCC#CCN1CCN(c3ccccc3OC)CC1)C(=O)OC2	> 50 µM	43.6 µM	> 50 µM	> 50 µM	> 50 µM	> 50 µM	> 50 µM
COC(=O)CC/C(C)=C/Cc1c(OC)c(C)c2c(c1OCC#CCN1CCC(C(=O)OC)CC1)C(=O)OC2	> 50 µM	41.2 µM	> 50 µM	40.5 µM	> 50 µM	> 50 µM	> 50 µM
COC(=O)CC/C(C)=C/Cc1c(O)c2c(c(C)c1OC)COC2=O	9.62 µM	0.26 µM	5.82 µM	0.82 µM	6.15 µM	7.45 µM	23.7 µM
COC(=O)CC/C(C)=C/Cc1c(OC)c(C)c2c(c1OCC#CCN1CCCC1)C(=O)OC2	> 50 µM	31.1 µM	> 50 µM	35.9 µM	> 50 µM	> 50 µM	46.5 µM
COC(=O)CC/C(C)=C/Cc1c(OC)c(C)c2c(c1OCC#CCN1CCN(c3ncccn3)CC1)C(=O)OC2	> 50 µM	> 50 µM	> 50 µM	> 50 µM	> 50 µM	> 50 µM	> 50 µM
CCCCN(CC#CCOc1c(C/C=C(\C)CCC(=O)OC)c(OC)c(C)c2c1C(=O)OC2)CCCC	39.8 µM	21.5 µM	36 µM	30.6 µM	30.9 µM	38.2 µM	> 50 µM
COC(=O)CC/C(C)=C/Cc1c(OC)c(C)c2c(c1OCC#CCN1CCN(c3ccccc3F)CC1)C(=O)OC2	> 50 µM	35.8 µM	> 50 µM	45.3 µM	> 50 µM	> 50 µM	> 50 µM
Cc1c2ccncc2c(C)c2c1[nH]c1ccccc12 [ELLIPTECINE]	2.03 µM	2.13 µM	1.89 µM	1.16 µM	1.85 µM	1.97 µM	1.95 µM
COC(=O)CC/C(C)=C/Cc1c(OC)c(C)c2c(c1OCC#CCN1CCN(c3ccccc3)CC1)C(=O)OC2	> 50 µM	9.14 µM	> 50 µM	22 µM	> 50 µM	> 50 µM	> 50 µM
COC(=O)CC/C(C)=C/Cc1c(OC)c(C)c2c(c1OCC#CCN1CCC(Cc3ccccc3)CC1)C(=O)OC2	> 50 µM	24.5 µM	> 50 µM	40.7 µM	> 50 µM	> 50 µM	> 50 µM
COC(=O)CC/C(C)=C/Cc1c(OC)c(C)c2c(c1OCC#CCN1CCN(Cc3ccc4c(c3)OCO4)CC1)C(=O)OC2	> 50 µM	34.8 µM	> 50 µM	45.5 µM	> 50 µM	> 50 µM	> 50 µM
COC(=O)CC/C(C)=C/Cc1c(OC)c(C)c2c(c1OCC#CCN1CCN(C(c3ccccc3)c3ccc(Cl)cc3)CC1)C(=O)OC2 (stereo not given)	> 50 µM	9.9 µM	> 50 µM	29.1 µM	> 50 µM	> 50 µM	> 50 µM
COC(=O)CC/C(C)=C/Cc1c(OC)c(C)c2c(c1OCC#CCN1CCC(c3ccccc3)c3ccccc31)C(=O)OC2 (stereo not given)	28.7 µM	6.45 µM	23.3 µM	7.68 µM	24.6 µM	25.9 µM	39.5 µM
COC(=O)CC/C(C)=C/Cc1c(OC)c(C)c2c(c1OCC#CCN1CCC(C(=O)O)CC1)C(=O)OC2	> 50 µM	47.2 µM	> 50 µM	> 50 µM	> 50 µM	> 50 µM	> 50 µM
CCCCNc1ccc(CC#CCOc2c(C/C=C(\C)CCC(=O)OC)c(OC)c(C)c3c2C(=O)OC3)cc1	19.8 µM	5.96 µM	18.3 µM	6.97 µM	21.2 µM	22.9 µM	36.7 µM
C#CCOc1c(C/C=C(\C)CCC(=O)OC)c(OC)c(C)c2c1C(=O)OC2	49.2 µM	3.07 µM	25.2 µM	31.8 µM	15.2 µM	35.7 µM	28.8 µM
C=CCN(CC#CCOc1c(C/C=C(\C)CCC(=O)OC)c(OC)c(C)c2c1C(=O)OC2)CC=C	> 50 µM	36.4 µM	36.4 µM	43.5 µM	> 50 µM	> 50 µM	> 50 µM
COC(=O)CC/C(C)=C/Cc1c(OC)c(C)c2c(c1OCC#CCN1CCN(CCO)CC1)C(=O)OC2	> 50 µM	35.7 µM	> 50 µM	> 50 µM	> 50 µM	> 50 µM	> 50 µM
